These are literature values, as cited in patent US6383513B1, “Compositions comprising cannabinoids” (West Pharmaceutical Services Drug Delivery & Clinical …, priority 1997, dated 2002).

Assay in data set [1]: not given
This is another data set of the same source.

As to `CCCCCc1cc(O)c2c(c1)OC(C)(C)[C@@H]1CCC(C)=C[C@@H]21` [Dronabinol, delta-9-tetrahydrocannabinol], the absorbed (after single oral doses) is listed as 90-95%. Moreover, the “administered dose that reaches the systemic circulation” value (oral, first pass hepatic metabolism and high lipid solubility) is 10-20%. Also, in data set [1] (after administration), the “appetite stimulant effect may continue” value is at least 24 h. In addition, in data set [1] (after oral administration), the “duration of action for psychoactive effects” value is 4 to 6 h, the onset of action is 0.5 to 1 h and the peak effect was 2 to 4 h.
